The source of these data is patent US20240277715A1, “COMBINATION THERAPIES COMPRISING A METTL3 INHIBITOR AND A FURTHER ANTICANCER AGENT” (Storm Therapeutics Limited, priority 2021, published 2024).

Read-outs that look alike come from different tables or passages of the source.

For assay [1], the system named is Kasumi1 AML cell line. As to the kind of experiment: AML cell viability, CellTiter-Glo combination matrix, Kasumi1. In kind it is cell-based. Conditions: for IC50: Homo sapiens, Kasumi 1, Kasumi1 cells. The protocol: (§1) The sensitivity of AML cell lines to combinations of METTL3 inhibitor and standards of care was determined as described. Dose response curves of venetoclax were determined either alone or in the presence of different concentrations of METTL3 inhibitor that are known to be active in cells.
(§2) Synergistic interactions occur when the IC50 value decreases in the presence of METTL3 inhibitor. […] Antagonistic interactions occur when the IC50 value increases in the presence of METTL3 inhibitor.
(§3) 24 h before cell treatment, homogenize, stain with Trypan blue and count viable cells using CellOMeter Auto T4. Dilute cells in media at 400 000 cells/ml to ensure an exponential growth the day after.
(§4) On treatment day, homogenize, stain with Trypan blue and count viable cells using CellOMeter Auto T4. Dilute to the proper cell seeding density according to Table 6 in cell media.
(§5) • Dispense drug (see Table 7) and METTL3 inhibitor in semi-log dose-response matrix and DMSO in 384-well plates using D300e Nanodispenser (Tecan). • 6× compound solution preparation: add 40 μL of cell medium in compound-containing plates and homogenize using the ViaFlo device (Integra) • Dispense 30 μl of cell suspension per well in three replicate 384-well white Ultra-Low-Attachment plates (Sbio) using ViaFlow device (Integra) • Transfer 6 μL of the 6× compound solution in each 30 μL cell suspension-containing plate. • Incubate at 37° C. 5% CO2 for 3 to 5 days.
(§6) • Add 35 μL CellTiter-Glo (Promega) in wells (vol/vol) using ViaFlo device (Integra). • Incubate at RT 10 min in the dark, with agitation the first minute, and read luminescence on the Ensight device (Perkin Elmer).
(§7) Raw data were converted to % viability by normalization to DMSO controls. IC50 determination was performed using GraphPad Prism and fitting curves to the standard nonlinear regression four parameter equation (Y=Bottom+(Top-Bottom)/(1+(IC50/X)^HillSlope)) least squares method, and synergy was assessed by comparison of IC50 values of the standard of care in the presence or absence of different concentrations of METTL3 inhibitor (see FIGS. 12 to 19).

The test system of assay [2] is AML. The settings on record: cited from earlier work.
Assay [3] has as its system FLT3-mutant MOLM-14 AML cell line. As to the kind of experiment: AML cell viability, CellTiter-Glo combination matrix, MOLM-14. The assay is classed as cell-based. As to the method:
as §3, §4, §5, §6
Raw data were converted to % viability by normalization to DMSO controls.

Assay [4] deals with MOLM13 AML cell line. Kind of assay: AML cell viability, CellTiter-Glo combination matrix, MOLM13. The assay is classed as cell-based. The settings on record: for interaction with venetoclax: MOLM13 AML cell line. As to the method: as §1, §2, §3, §4, §5, §6, §7
Assay [5] relates to SKOV3 human ovarian cancer cells. Kind of assay: Tumour killing assay (TKA), SKOV3 spheroid / PBMC co-culture. The assay is classed as cell-based. The settings on record: STM3480 0.05 micromolar, FIG. 1 and 2. The protocol: This experiment evaluates the effects of human donor Peripheral Blood Mononuclear Cells (PBMCs) to attack and kill fluorescently-labelled tumour cells in a co-culture assay. Briefly, test agents are incubated at different concentrations with SKOV3 human ovarian cancer cells in the presence or absence of human donor PBMCs and tumour growth is monitored continuously by real time imaging of the NucLight Red-labelled SKOV3 cells for several days.
NucLight Red (Incucyte, Essen Biosciences)-transduced SK-OV-3 (SK-OV-3-NLR) cells were transferred into Ultra-low attachment 96 well plates with spontaneous spheroid formation occurring over 48 hours. Peripheral blood mononuclear cells (PBMC) were isolated from healthy single donor buffy coats by density separation. Prior to co-culture of SK-OV-3-NLR spheroids with PBMC, SK-OV-3-NLR spheroids were treated with 10 ng/ml of interferon gamma (IFNγ). All treatments, including STM3480 and Pembrolizumab, were added at the point of co-culture in a final total volume of 200 μl/per well. Assay plates were transferred into an IncuCyte S3 and images were collected every 2 hours for 7 days. Following experimental completion, an analysis definition was applied to quantify the Total NLR Integrated Intensity present on a per well basis. Changes in spheroid size were quantified by plotting Total NLR Integrated Intensity against time.

The mark [6] stands for this setting: Kasumi1, with increasing concentrations of STM3006.
The mark [7] stands for this setting: Kasumi1, with increasing concentrations of STM3480.

For `Nc1ncn([C@@H]2O[C@H](CO)[C@@H](O)[C@H]2O)c(=O)n1` [5′-azacitidine], the “change in IC50 of the standard of care” value in assay [1] (setting [6]) and in assay [1] (setting [7]) was “No change” in each case.
With `O=C(NCc1cn2cc(CNCC3CCCCC3)ccc2n1)c1cc(=O)n2ccccc2n1` [STM2457], in assay [2], the AML growth entry was “reduction”; the differentiation and apoptosis entry was “increase”.
Regarding `CC1(C)CCN(Cc2ccc3nc(Cn4cc(-c5cc(Br)cc6[nH]ncc56)nn4)cn3c2)CC1` [STM3006, 6-bromo-4-[1-({6-[(4,4-dimethylpiperidin-1-yl)methyl]imidazo[1,2-a]pyridin-2-yl}methyl)-1H-1,2,3-triazol-4-yl]-1H-indazole], in assay [3] (FLT3-mutant MOLM-14 AML cell line), the interaction with quizartinib result is “additive”. For the same compound, the “cell viability with increasing concentrations of METTL3 inhibitor” value in assay [3] (MOLM-14, combination with quizartinib) is listed as “decreasing viability”. Besides, in assay [4], the interaction with venetoclax entry is on record as “synergistic”. Besides, the “cell viability with increasing concentrations of METTL3 inhibitor” value in assay [1] (Kasumi1, combination with daunorubicin) is reported as “decreasing viability”. Besides, in assay [1] (Kasumi1 AML cell line), the “interaction with 5′-azacitidine” value is “additive”, the interaction with cytarabine result was “additive”, the interaction with daunorubicin result was “additive” and the interaction with venetoclax result is listed as “synergistic”.
Turning to `O=C(NCc1ccc2cc(CNCC34CC(F)(C3)C4)[nH]c2c1)c1cc(=O)n2ccccc2n1` [STM3675, N-[(2-{[({3-fluorobicyclo[1.1.1]pentan-1-yl}methyl)amino]methyl}-1H-indol-6-yl)methyl]-4-oxo-4H-pyrido[1,2-a]pyrimidine-2-carboxamide], the interaction with venetoclax entry in assay [4] and in assay [1] (Kasumi1 AML cell line) was “synergistic” each time.
For `Nc1ccn([C@@H]2O[C@H](CO)[C@@H](O)[C@@H]2O)c(=O)n1` [cytarabine], the “change in IC50 of the standard of care” value in assay [1] (setting [6]) and in assay [1] (setting [7]) was “No change” each time.
On to `COc1cccc2c1C(=O)c1c(O)c3c(c(O)c1C2=O)C[C@@](O)(C(C)=O)C[C@@H]3O[C@H]1C[C@H](N)[C@H](O)[C@H](C)O1` [daunorubicin], for which the “change in IC50 of the standard of care” value in assay [1] (setting [6]) and in assay [1] (setting [7]) was “No change” each time.
In the case of `CC1(C)CCC(CN2CCN(c3ccc(C(=O)NS(=O)(=O)c4ccc(NCC5CCOCC5)c([N+](=O)[O-])c4)c(Oc4cnc5[nH]ccc5c4)c3)CC2)=C(c2ccc(Cl)cc2)C1` [venetoclax, 4-{4-[(4′-chloro-5,5-dimethyl[3,4,5,6-tetrahydro[1,1′-biphenyl]]-2-yl)methyl]piperazin-1-yl}-N-(3-nitro-4-{[(oxan-4-yl)methyl]amino}benzene-1-sulfonyl)-2-[(1H-pyrrolo[2,3-b]pyridin-5-yl)oxy]benzamide], the “change in IC50 of the standard of care” value in assay [4] (MOLM13, with increasing concentrations of STM3006) was “decreasing”; in assay [4] (MOLM13, with increasing concentrations of STM3480) it was “decreasing”; in assay [4] (MOLM13, with increasing concentrations of STM3675), “decreasing”; in assay [1] (setting [6]), “decreasing”; in assay [1] (setting [7]) it was “decreasing”; in assay [1] (Kasumi1, with increasing concentrations of STM3675) it was “decreasing”. Moreover, the IC50 is 0.0509 µM in assay [1] (in the presence of 316.2 nM STM3480, read-out: venetoclax IC50); 0.0222 µM in assay [1] (in the presence of 1000 nM STM3480, read-out: venetoclax IC50); 0.239 µM in assay [1] (venetoclax alone, read-out: IC50 of venetoclax).
As for “Pembrolizumab: anti-PD1 antibody [reference compound]”, the “tumour viability (normalized NucLight Red [NLR] fluorescence) against time” value in assay [5] is recorded as “greater decline in viable tumour cells”.
